Data: patent US10758534B2 (Vertex Pharmaceuticals Incorporated, priority 2014, dated 2020)

target: T1, F508del (Homo sapiens, UniProt P13569, DEL508-508); experiment: Protocol 2: FRET membrane potential optical assay (VIPR), identification of correction compounds; type: cell-based; settings: F508del CFTR modulator activity; compounds of Table 1; read-out: EC30
T1 construct: expressed in transfected cells
Method in brief: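 Single-addition HTS format: F508del-expressing NIH3T3 cells pre-incubated 16 hrs at 37° C. ± compound, with 27° C. culture as positive control. Channel activation by forskolin 10 μM and genistein 20 μM upon switch to gluconate bath, pH 7.4; read-out is FRET-based depolarization signal.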

T1 sequence (P13569 with tags, fused parts or gaps DEL508-508): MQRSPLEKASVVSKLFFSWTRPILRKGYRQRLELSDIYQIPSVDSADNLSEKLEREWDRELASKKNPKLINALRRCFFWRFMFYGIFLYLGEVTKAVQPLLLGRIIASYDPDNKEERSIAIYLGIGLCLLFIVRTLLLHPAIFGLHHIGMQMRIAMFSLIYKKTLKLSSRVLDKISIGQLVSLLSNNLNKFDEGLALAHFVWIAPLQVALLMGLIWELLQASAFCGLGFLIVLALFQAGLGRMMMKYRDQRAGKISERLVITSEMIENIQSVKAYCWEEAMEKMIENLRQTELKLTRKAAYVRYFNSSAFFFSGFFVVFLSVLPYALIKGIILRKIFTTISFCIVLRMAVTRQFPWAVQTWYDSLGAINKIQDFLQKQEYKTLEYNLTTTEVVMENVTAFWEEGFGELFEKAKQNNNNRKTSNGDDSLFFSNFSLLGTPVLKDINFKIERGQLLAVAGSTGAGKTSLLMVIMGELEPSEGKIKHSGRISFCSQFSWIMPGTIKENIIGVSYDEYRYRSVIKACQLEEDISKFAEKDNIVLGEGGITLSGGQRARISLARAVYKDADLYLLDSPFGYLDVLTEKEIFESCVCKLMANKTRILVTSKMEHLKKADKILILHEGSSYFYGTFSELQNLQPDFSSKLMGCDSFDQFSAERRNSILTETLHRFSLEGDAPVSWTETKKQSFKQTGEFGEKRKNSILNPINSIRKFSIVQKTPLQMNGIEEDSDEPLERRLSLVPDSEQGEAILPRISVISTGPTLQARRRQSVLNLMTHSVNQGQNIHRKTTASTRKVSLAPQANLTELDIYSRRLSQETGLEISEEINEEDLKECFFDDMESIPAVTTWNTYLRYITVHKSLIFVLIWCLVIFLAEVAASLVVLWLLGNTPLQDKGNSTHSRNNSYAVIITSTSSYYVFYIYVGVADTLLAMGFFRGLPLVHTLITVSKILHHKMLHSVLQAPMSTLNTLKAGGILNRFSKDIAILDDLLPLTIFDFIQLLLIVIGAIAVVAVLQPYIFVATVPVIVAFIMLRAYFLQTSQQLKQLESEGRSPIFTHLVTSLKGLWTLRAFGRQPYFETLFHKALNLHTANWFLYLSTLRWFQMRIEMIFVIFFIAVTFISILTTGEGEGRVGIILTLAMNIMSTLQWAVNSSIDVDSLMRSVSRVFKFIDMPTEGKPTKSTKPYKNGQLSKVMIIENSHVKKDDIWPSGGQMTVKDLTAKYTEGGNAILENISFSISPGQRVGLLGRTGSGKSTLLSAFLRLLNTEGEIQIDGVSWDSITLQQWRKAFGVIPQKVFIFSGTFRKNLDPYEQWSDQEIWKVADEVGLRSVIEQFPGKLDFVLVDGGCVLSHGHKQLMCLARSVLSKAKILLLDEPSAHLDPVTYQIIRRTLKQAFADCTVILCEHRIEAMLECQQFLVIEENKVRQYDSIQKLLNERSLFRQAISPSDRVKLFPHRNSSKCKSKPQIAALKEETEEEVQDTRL

| SMILES | EC30 |
| --- | --- |
| C[C@@H]1CN(c2nc(-c3ccc(F)cc3F)ccc2C(=O)NS(=O)(=O)c2ccc[nH]c2=O)C(C)(C)C1 [Compound 2159, 6-(2,4-difluorophenyl)-N-[(2-oxo-1H-pyridin-3-yl)sulfonyl]-2-[(4S)-2,2,4-trimethylpyrrolidin-1-yl]pyridine-3-carboxamide] | < 3 µM |
| CC1CN(c2ncccc2C(=O)NS(=O)(=O)c2cccc(OCCc3ccsc3)n2)C(C)(C)C1 (stereo not shown) [Compound 2161, N—[[6-[2-(3-thienyl)ethoxy]-2-pyridyl]sulfonyl]-2-(2,2,4-trimethylpyrrolidin-1-yl)pyridine-3-carboxamide] | < 3 µM |
| C[C@@H]1CN(c2nc(-c3cccc(F)c3F)ccc2C(=O)NS(=O)(=O)c2ccc[nH]c2=O)C(C)(C)C1 [Compound 2162, 6-(2,3-difluorophenyl)-N-[(2-oxo-1H-pyridin-3-yl)sulfonyl]-2-[(4S)-2,2,4-trimethylpyrrolidin-1-yl]pyridine-3-carboxamide] | < 3 µM |
| C[C@@H]1CN(c2nc(-c3cccc4c3OCC4)ccc2C(=O)NS(=O)(=O)c2cccnc2N)C(C)(C)C1 [Compound 2163, N-[(2-amino-3-pyridyl)sulfonyl]-6-(2,3-dihydrobenzofuran-7-yl)-2-[(4S)-2,2,4-trimethylpyrrolidin-1-yl]pyridine-3-carboxamide] | < 3 µM |
| CC1CN(c2ncccc2C(=O)NS(=O)(=O)c2cccc(Oc3cccc(Cl)c3F)n2)C(C)(C)C1 (stereo not shown) [Compound 2165, N—[[6-(3-chloro-2-fluoro-phenoxy)-2-pyridyl]sulfonyl]-2-(2,2,4-trimethylpyrrolidin-1-yl)pyridine-3-carboxamide] | < 3 µM |
| CC1CN(c2ncccc2C(=O)NS(=O)(=O)c2cccc(N3CCC(F)(F)C3)n2)C(C)(C)C1 (stereo not shown) [Compound 2166, N—[[6-(3,3-difluoropyrrolidin-1-yl)-2-pyridyl]sulfonyl]-2-(2,2,4-trimethylpyrrolidin-1-yl)pyridine-3-carboxamide] | 3 to 10 µM |
| CCCCOc1cccc(S(=O)(=O)NC(=O)c2cccnc2N2CC(C)CC2(C)C)n1 (stereo not shown) [Compound 2167, N-[(6-butoxy-2-pyridyl)sulfonyl]-2-(2,2,4-trimethylpyrrolidin-1-yl)pyridine-3-carboxamide] | < 3 µM |
| COc1cccc(CNc2cccc(S(=O)(=O)NC(=O)c3cccnc3N3CC(C)CC3(C)C)n2)c1 (stereo not shown) [Compound 2168, N—[[6-[(3-methoxyphenyl)methylamino]-2-pyridyl]sulfonyl]-2-(2,2,4-trimethylpyrrolidin-1-yl)pyridine-3-carboxamide] | < 3 µM |
| CC1CN(c2ncccc2C(=O)NS(=O)(=O)c2cccc(OCc3ccc4c(c3)OCO4)n2)C(C)(C)C1 (stereo not shown) [Compound 2169, N—[[6-(1,3-benzodioxol-5-ylmethoxy)-2-pyridyl]sulfonyl]-2-(2,2,4-trimethylpyrrolidin-1-yl)pyridine-3-carboxamide] | < 3 µM |
| CC(C)COc1cc(F)cc(-c2ccc(C(=O)NS(=O)(=O)c3cccc(N)n3)c(N3CCCC(C)(C)CC3)n2)c1 [Compound 2171, N-[(6-amino-2-pyridyl)sulfonyl]-2-(4,4-dimethylazepan-1-yl)-6-(3-fluoro-5-isobutoxy-phenyl)pyridine-3-carboxamide] | < 3 µM |
| CC1CN(c2ncccc2C(=O)NS(=O)(=O)c2cccc(OC3CCC(C(C)C)CC3)n2)C(C)(C)C1 (stereo not shown) [Compound 2173, N—[[6-(4-isopropylcyclohexoxy)-2-pyridyl]sulfonyl]-2-(2,2,4-trimethylpyrrolidin-1-yl)pyridine-3-carboxamide] | < 3 µM |
| CC1CN(c2ncccc2C(=O)NS(=O)(=O)c2cccc(N3CCN(Cc4ccncc4)CC3)n2)C(C)(C)C1 (stereo not shown) [Compound 2175, N—[[6-[4-(4-pyridylmethyl)piperazin-1-yl]-2-pyridyl]sulfonyl]-2-(2,2,4-trimethylpyrrolidin-1-yl)pyridine-3-carboxamide] | 3 to 10 µM |
| Cc1ccccc1-c1ccc(C(=O)NS(=O)(=O)c2ccc[nH]c2=O)c(N2C[C@@H](C)CC2(C)C)n1 [Compound 2176, 6-(o-tolyl)-N-[(2-oxo-1H-pyridin-3-yl)sulfonyl]-2-[(4S)-2,2,4-trimethylpyrrolidin-1-yl]pyridine-3-carboxamide] | < 3 µM |
| CC1CN(c2ncccc2C(=O)NS(=O)(=O)c2cccc(Oc3cc(Cl)cc(C#N)c3)n2)C(C)(C)C1 (stereo not shown) [Compound 2177, N—[[6-(3-chloro-5-cyano-phenoxy)-2-pyridyl]sulfonyl]-2-(2,2,4-trimethylpyrrolidin-1-yl)pyridine-3-carboxamide] | < 3 µM |
| COc1ccc(OC)c(Nc2cccc(S(=O)(=O)NC(=O)c3cccnc3N3CC(C)CC3(C)C)n2)c1 (stereo not shown) [Compound 2179, N—[[6-(2,5-dimethoxyanilino)-2-pyridyl]sulfonyl]-2-(2,2,4-trimethylpyrrolidin-1-yl)pyridine-3-carboxamide] | < 3 µM |
| CC1CN(c2ncccc2C(=O)NS(=O)(=O)c2cccc(OCc3cccs3)n2)C(C)(C)C1 (stereo not shown) [Compound 2181, N—[[6-(2-thienylmethoxy)-2-pyridyl]sulfonyl]-2-(2,2,4-trimethylpyrrolidin-1-yl)pyridine-3-carboxamide] | < 3 µM |
| CC1CN(c2ncccc2C(=O)NS(=O)(=O)c2cccc(OCc3ccc(Cl)cc3F)n2)C(C)(C)C1 (stereo not shown) [Compound 2182, N—[[6-[(4-chloro-2-fluoro-phenyl)methoxy]-2-pyridyl]sulfonyl]-2-(2,2,4-trimethylpyrrolidin-1-yl)pyridine-3-carboxamide] | < 3 µM |
| C[C@@H]1CN(c2nc(-c3cccc(C#N)c3)ccc2C(=O)NS(=O)(=O)c2ccc[nH]c2=O)C(C)(C)C1 [Compound 2185, 6-(3-cyanophenyl)-N-[(2-oxo-1H-pyridin-3-yl)sulfonyl]-2-[(4S)-2,2,4-trimethylpyrrolidin-1-yl]pyridine-3-carboxamide] | 3 to 10 µM |
| CC1CN(c2ncccc2C(=O)NS(=O)(=O)c2cccc(O[C@@H](C)c3ccccc3)n2)C(C)(C)C1 (stereo partly drawn) [Compound 2186, N—[[6-[(1S)-1-phenylethoxy]-2-pyridyl]sulfonyl]-2-(2,2,4-trimethylpyrrolidin-1-yl)pyridine-3-carboxamide] | < 3 µM |
| CC1CN(c2ncccc2C(=O)NS(=O)(=O)c2cccc(OCC3CCC3)n2)C(C)(C)C1 (stereo not shown) [Compound 2188, N—[[6-(cyclobutylmethoxy)-2-pyridyl]sulfonyl]-2-(2,2,4-trimethylpyrrolidin-1-yl)pyridine-3-carboxamide] | < 3 µM |
| CC1CN(c2ncccc2C(=O)NS(=O)(=O)c2cccc(Nc3ccc4c(c3)OCCO4)n2)C(C)(C)C1 (stereo not shown) [Compound 2190, N—[[6-(2,3-dihydro-1,4-benzodioxin-6-ylamino)-2-pyridyl]sulfonyl]-2-(2,2,4-trimethylpyrrolidin-1-yl)pyridine-3-carboxamide] | < 3 µM |

Further lines, results first:

| EC30 | SMILES |
| --- | --- |
| 3 to 10 µM | Cc1cc(C)nc(Nc2cccc(S(=O)(=O)NC(=O)c3cccnc3N3CC(C)CC3(C)C)n2)c1 (stereo not shown) [Compound 2160, N—[[6-[(4,6-dimethyl-2-pyridyl)amino]-2-pyridyl]sulfonyl]-2-(2,2,4-trimethylpyrrolidin-1-yl)pyridine-3-carboxamide] |
| < 3 µM | COc1cccc(-c2ccc(C(=O)NS(=O)(=O)c3cccnc3N)c(N3C[C@@H](C)CC3(C)C)n2)c1 [Compound 2164, N-[(2-amino-3-pyridyl)sulfonyl]-6-(3-methoxyphenyl)-2-[(4S)-2,2,4-trimethylpyrrolidin-1-yl]pyridine-3-carboxamide] |
| < 3 µM | Cc1cc(-c2ccc(C(=O)NS(=O)(=O)c3cccc(N)n3)c(N3C[C@@H](C)CC3(C)C)n2)cnc1OC(C)C [Compound 2170, N-[(6-amino-2-pyridyl)sulfonyl]-6-(6-isopropoxy-5-methyl-3-pyridyl)-2-[(4S)-2,2,4-trimethylpyrrolidin-1-yl]pyridine-3-carboxamide] |
| < 3 µM | CC(C)c1ccccc1-c1ccc(C(=O)NS(=O)(=O)c2cccnc2N)c(N2C[C@@H](C)CC2(C)C)n1 [Compound 2172, N-[(2-amino-3-pyridyl)sulfonyl]-6-(2-isopropylphenyl)-2-[(4S)-2,2,4-trimethylpyrrolidin-1-yl]pyridine-3-carboxamide] |
| 3 to 10 µM | Cc1ccc(O)c(-c2ccc(C(=O)NS(=O)(=O)c3ccc[nH]c3=O)c(N3C[C@@H](C)CC3(C)C)n2)c1 [Compound 2174, 6-(2-hydroxy-5-methyl-phenyl)-N-[(2-oxo-1H-pyridin-3-yl)sulfonyl]-2-[(4S)-2,2,4-trimethylpyrrolidin-1-yl]pyridine-3-carboxamide] |
| < 3 µM | CC1CN(c2ncc(-c3cccc(C(C)(C)C)c3)cc2C(=O)NS(=O)(=O)c2cccc(N)n2)C(C)(C)C1 (stereo not shown) [Compound 2180, N-[(6-amino-2-pyridyl)sulfonyl]-5-(3-tert-butylphenyl)-2-(2,2,4-trimethylpyrrolidin-1-yl)pyridine-3-carboxamide] |
| < 3 µM | C[C@@H]1CN(c2nc(-c3cccc(Cl)c3)ccc2C(=O)NS(=O)(=O)c2cccnc2N)C(C)(C)C1 [Compound 2183, N-[(2-amino-3-pyridyl)sulfonyl]-6-(3-chlorophenyl)-2-[(4S)-2,2,4-trimethylpyrrolidin-1-yl]pyridine-3-carboxamide] |
| < 3 µM | Cc1cccc(-c2cnc(N3CC(C)CC3(C)C)c(C(=O)NS(=O)(=O)c3cccc(N)n3)c2)c1 (stereo not shown) [Compound 2184, N-[(6-amino-2-pyridyl)sulfonyl]-5-(m-tolyl)-2-(2,2,4-trimethylpyrrolidin-1-yl)pyridine-3-carboxamide] |
| < 3 µM | CC1CN(c2ncccc2C(=O)NS(=O)(=O)c2cccc(NCc3ccc(C(C)C)cc3)n2)C(C)(C)C1 (stereo not shown) [Compound 2187, N—[[6-[(4-isopropylphenyl)methylamino]-2-pyridyl]sulfonyl]-2-(2,2,4-trimethylpyrrolidin-1-yl)pyridine-3-carboxamide] |
| < 3 µM | COc1ccc(F)cc1-c1ccc(C(=O)NS(=O)(=O)c2cccnc2N)c(N2C[C@@H](C)CC2(C)C)n1 [Compound 2189, N-[(2-amino-3-pyridyl)sulfonyl]-6-(5-fluoro-2-methoxy-phenyl)-2-[(4S)-2,2,4-trimethylpyrrolidin-1-yl]pyridine-3-carboxamide] |
